# Results: patent US4753965A, “Method of treating multiple sclerosis with chalcone derivatives” (Merrell Dow Pharmaceuticals, Inc., priority 1987, dated 1988)
# How the values were obtained:
# [1] = tested on: Experimental Allergic Encephalomyelitis (EAE); test: Experimental Allergic Encephalomyelitis (EAE) in rats; format: in vivo, Lewis strain rats
# Experimental: Effect of α-methyl-4-dimethylamino-2',5'-dimethoxychalcone on Experimental Allergic Encephalomyelitis (EAE) in Rats
# EAE was induced in rats as described by Rosenthal and Nagra, Proc. Soc.
# Lewis strain rats ranging in weight
# from 100-200 g were sensitized with encephalitogenic emulsion consisting
# of homogenized spinal cord in complete Freund's adjuvant. The test
# compound and hydrocortisone (HC) were administered in
# polyvinylpyrrolidone vehicle. The test compound was administered i.p.
# once daily from day 1 through day 10. HC was administered s.c. once
# every other day from day 1 through day 10. The incidence of paralysis
# was recorded and mean paralysis time was calculated.
# HeLa cells = test: Growth inhibition of HeLa cells; format: cell-based; settings: Homo sapiens, 72 hours
# Experimental: The compounds of structure 1 inhibit the polymerization of tubulin, and thus the formation of microtubules, that ubiquitous substance of eukaryotic cells which serves a variety of functions, most importantly, to separate the duplicated sets of chromosomes during cell mitosis.
# For growth inhibition studies, exponentially growing HeLa cells
# were incubated at a density of 1 × 10^5 cells/35 mm dish with
# number of dilutions of the test compound in the medium. The
# plates were incubated at 37° C. in a CO2 incubation. At the
# of 72 hours the cells were collected by trypinization and
# counted and the IC50 (.upsilon.g/ml) was determined.
# [2] = 6.25 mg/kg i.p. once daily day 1 through day 10
# [3] = 12.5 mg/kg i.p. once daily day 1 through day 10
# [4] = 25.0 mg/kg i.p. once daily day 1 through day 10
IC50 (HeLa cells),SMILES,number paralyzed/total number of animals ([1]; 25.0 mg/kg s.c. once every other day day 1 through day 10),"PARALYSIS TIME (Mean ± S.E.) [1, 2]","PERCENT INCIDENCE OF PARALYSIS [1, 2]","number paralyzed/total number of animals [1, 2]","PARALYSIS TIME (Mean ± S.E.) [1, 3]","PERCENT INCIDENCE OF PARALYSIS [1, 3]","number paralyzed/total number of animals [1, 3]","PARALYSIS TIME (Mean ± S.E.) [1, 4]","PERCENT INCIDENCE OF PARALYSIS [1, 4]","number paralyzed/total number of animals [1, 4]"
–,"C[C@]12CCC(=O)C=C1CC[C@@H]1[C@@H]2[C@@H](O)C[C@@]2(C)[C@H]1CC[C@]2(O)C(=O)CO [HYDROCORTISONE, hydrocortisone, reference compound]",14/19,–,–,–,–,–,–,–,–,–
0.015 µg/mL,"COc1ccc(OC)c(C(=O)C(C)=Cc2ccc(N(C)C)cc2)c1 [COMPOUND, 1-(2,5-dimethoxyphenyl)-3-[4-(dimethylamino)phenyl]-2-methyl-2-propen-1-one]",–,9.7 ± 0.36 days,90%,9/10,9.4 ± 0.26 days,80%,8/10,10.8 ± 0.54 days,40%,7/18
